In ChEMBL document CHEMBL4689842, “EUbOPEN Chemogenomics Library wave 1” (2021):

What was measured:
HEK-293T = assay: Incucyte cell viability with HEK293T; format: toxicity, cell-based; conditions: human, 10 µM, compound concentration 10 uM
U2OS = assay: Incucyte cell viability with U2OS; format: toxicity, cell-based; conditions: human, 10 µM, compound concentration 10 uM
[1] = 6 h, replicate number 1, timepoint 6 hours
[2] = 12 h, replicate number 1, timepoint 12 hours
[3] = 18 h, replicate number 1, timepoint 18 hours
[4] = 24 h, replicate number 1, timepoint 24 hours
[5] = 0 h, replicate number 1, timepoint 0 hours
[6] = 0 h, replicate number 2, timepoint 0 hours
[7] = 6 h, replicate number 2, timepoint 6 hours
[8] = 12 h, replicate number 2, timepoint 12 hours
[9] = 18 h, replicate number 2, timepoint 18 hours
[10] = 24 h, replicate number 2, timepoint 24 hours

Measured: Growth Rate
Also: filed as whole numbers so only -1 and 0 and 1 occur.

C=CC(=O)Nc1cccc(Oc2nc(Nc3ccc(N4CCN(C)CC4)cc3OC)ncc2Cl)c1
0: HEK-293T; [1] | HEK-293T; [2] | HEK-293T; [3] | HEK-293T; [4] | U2OS; [5] | U2OS; [1] | U2OS; [2] | U2OS; [3] | U2OS; [4]

Cc1cccc(CN2CCN(C(c3ccccc3)c3ccc(Cl)cc3)CC2)c1.Cl.Cl (centres undefined)
0: HEK-293T; [6] | HEK-293T; [1] | HEK-293T; [2] | HEK-293T; [3] | HEK-293T; [4] | U2OS; [5] | U2OS; [7] | U2OS; [8] | U2OS; [9] | U2OS; [10]
1: HEK-293T; [5] | U2OS; [6] | U2OS; [3] | U2OS; [4]

C=CC(=O)Nc1cccc(Sc2nc(Nc3ccc(N4CCN(C)CC4)cc3)ncc2Cl)c1
0: HEK-293T; [1] | HEK-293T; [2] | HEK-293T; [3] | HEK-293T; [4] | U2OS; [5] | U2OS; [1] | U2OS; [2] | U2OS; [3] | U2OS; [4]

CC(C)OC(=O)N1CCC(Oc2ncnc3c2cnn3-c2ccc(S(C)(=O)=O)cc2F)CC1
1: HEK-293T; [6] | U2OS; [2] | U2OS; [3] | U2OS; [4]
0: HEK-293T; [1] | HEK-293T; [2] | HEK-293T; [3] | HEK-293T; [4] | U2OS; [5] | U2OS; [7] | U2OS; [8] | U2OS; [9] | U2OS; [10]

COc1cc(Nc2nccc(-c3cnn4nc(OC)ccc34)n2)cc(C(F)(F)F)c1
1: U2OS; [5]
0: HEK-293T; [1] | HEK-293T; [2] | HEK-293T; [3] | HEK-293T; [4] | U2OS; [6] | U2OS; [1] | U2OS; [2] | U2OS; [3] | U2OS; [4]

O=c1cc(N2CCOCC2)oc2c(-c3cccc4c3sc3ccccc34)cccc12
0: HEK-293T; [1] | HEK-293T; [2] | HEK-293T; [3] | HEK-293T; [4] | U2OS; [5] | U2OS; [1] | U2OS; [2] | U2OS; [3] | U2OS; [4]
1: U2OS; [7] | U2OS; [8]

O=C(c1cc2c(cc1F)OC(c1ccc(F)cc1)(c1ccc(Cl)cc1Cl)O2)N1CCOCC1 (centres undefined)
1: U2OS; [7]
0: HEK-293T; [5] | HEK-293T; [1] | HEK-293T; [2] | HEK-293T; [3] | HEK-293T; [4] | U2OS; [5] | U2OS; [2] | U2OS; [3] | U2OS; [4]

CC(C)NC(=O)N1CC[C@H](NC2=Nc3cc(F)ccc3N(CC(F)F)c3ccc(Cl)cc32)C1
0: HEK-293T; [5] | HEK-293T; [7] | HEK-293T; [10] | U2OS; [5] | U2OS; [1] | U2OS; [2] | U2OS; [3] | U2OS; [4]
1: HEK-293T; [2] | HEK-293T; [3] | HEK-293T; [4] | U2OS; [7] | U2OS; [8] | U2OS; [9]

CC(C)Oc1ccccc1C(=O)Nc1ccccc1C(=O)Nc1cccc(S(=O)(=O)C(F)(F)F)c1
1: U2OS; [3] | U2OS; [4]
0: HEK-293T; [5] | HEK-293T; [1] | HEK-293T; [2] | HEK-293T; [3] | HEK-293T; [4] | U2OS; [5]

CC1=C(C(=O)Nc2cc3cn[nH]c3cc2F)C(c2ccc(C(F)(F)F)cc2)CC(=O)N1 (centres undefined)
1: HEK-293T; [4] | U2OS; [3] | U2OS; [4]
0: HEK-293T; [5]

Cc1nc(N2CC[C@H](O)C2)ncc1-c1cc(C(F)(F)F)cc2[nH]ncc12
0: HEK-293T; [1] | HEK-293T; [2] | HEK-293T; [3] | HEK-293T; [4] | U2OS; [1] | U2OS; [3] | U2OS; [4]
1: HEK-293T; [5] | U2OS; [5] | U2OS; [7] | U2OS; [2] | U2OS; [9]

CN1CCN(Cc2cc(NC(=O)c3ccc4c(c3)CN(c3ccccc3)CC4)cc(C(F)(F)F)c2)CC1
0: HEK-293T; [1] | HEK-293T; [2] | HEK-293T; [3] | HEK-293T; [4] | U2OS; [6] | U2OS; [1] | U2OS; [2] | U2OS; [3] | U2OS; [4]
1: U2OS; [5] | U2OS; [7]

CN(c1ccccc1CNc1nc(Nc2ccc3c(c2)CC(=O)N3)ncc1C(F)(F)F)S(C)(=O)=O
0: HEK-293T; [1] | HEK-293T; [2] | HEK-293T; [3] | HEK-293T; [4] | U2OS; [5] | U2OS; [1] | U2OS; [2] | U2OS; [3] | U2OS; [4]

Cl.O=C(O)c1cc(-c2ccc(C3CCNCC3)cc2)c2ccc(-c3ccc(C(F)(F)F)cc3)cc2c1
1: HEK-293T; [7] | U2OS; [5]
0: HEK-293T; [5] | HEK-293T; [1] | HEK-293T; [2] | HEK-293T; [3] | HEK-293T; [4] | U2OS; [6] | U2OS; [1] | U2OS; [2] | U2OS; [3] | U2OS; [4]

O=c1[nH]c2ccccc2n1C1CCN(Cc2ccc(-c3[nH]c4cc5ncnc5cc4nc3-c3ccccc3)cc2)CC1
1: HEK-293T; [6] | U2OS; [8] | U2OS; [9] | U2OS; [10]
0: HEK-293T; [1] | HEK-293T; [2] | HEK-293T; [3] | HEK-293T; [4] | U2OS; [5] | U2OS; [2] | U2OS; [3] | U2OS; [4]

CCc1ccc(OCc2ccccc2C(=O)Nc2ccc3nc(C)cc(N)c3c2)cc1.Cl
0: HEK-293T; [1] | HEK-293T; [2] | HEK-293T; [3] | HEK-293T; [4] | U2OS; [5] | U2OS; [1] | U2OS; [2] | U2OS; [3] | U2OS; [4]

CNC(=O)Nc1ccc(-c2nc(N3CC4CCC(C3)O4)c3cnn(C4CCC5(CC4)OCCO5)c3n2)cc1
1: U2OS; [1] | U2OS; [9] | U2OS; [10]
0: HEK-293T; [1] | HEK-293T; [2] | HEK-293T; [3] | HEK-293T; [4] | U2OS; [6] | U2OS; [2] | U2OS; [3] | U2OS; [4]

CNC(=O)Nc1ccc2c(c1)[C@@]1(CC2)OC(=O)N(CC(=O)N(Cc2ccc(F)cc2)[C@@H](C)C(F)(F)F)C1=O [A-486]
1: HEK-293T; [5] | U2OS; [8] | U2OS; [10]
0: HEK-293T; [1] | HEK-293T; [2] | HEK-293T; [3] | HEK-293T; [4] | U2OS; [5] | U2OS; [1] | U2OS; [2] | U2OS; [3] | U2OS; [4]

Cc1cc(NC(=O)c2cccc(S(F)(F)(F)(F)F)c2)cc(-n2ccn3nc(-c4cccnc4)cc23)c1 [BAY-309]
0: HEK-293T; [1] | HEK-293T; [2] | HEK-293T; [3] | HEK-293T; [4] | U2OS; [6] | U2OS; [1] | U2OS; [2] | U2OS; [3] | U2OS; [4]
1: HEK-293T; [5]

Cc1c[nH]c2nccc(Oc3c(F)cc(Nc4cc(Cl)nc(N)n4)cc3F)c12 [BAY-549]
0: HEK-293T; [5] | HEK-293T; [1] | HEK-293T; [2] | HEK-293T; [3] | HEK-293T; [4] | U2OS; [6] | U2OS; [1] | U2OS; [2] | U2OS; [3] | U2OS; [4]

COc1ccc(-c2ccc3ncc4c(c3c2)n(-c2ccc(N3CCNCC3)c(C(F)(F)F)c2)c(=O)n4C)cn1.O=C(O)/C=C\C(=O)O [BGT-226]
0: HEK-293T; [1] | HEK-293T; [2] | HEK-293T; [3] | HEK-293T; [4] | U2OS; [5] | U2OS; [1] | U2OS; [2] | U2OS; [3] | U2OS; [4]
